According to patent publication US20260250318A1, “COMPOSITIONS AND METHODS FOR CROSSING THE BLOOD BRAIN BARRIER” (VOYAGER THERAPEUTICS, INC., priority 2022, published 2026):

Target: T1, ALPL (Homo sapiens, UniProt P05186)
T1 sequence (P05186 18-501): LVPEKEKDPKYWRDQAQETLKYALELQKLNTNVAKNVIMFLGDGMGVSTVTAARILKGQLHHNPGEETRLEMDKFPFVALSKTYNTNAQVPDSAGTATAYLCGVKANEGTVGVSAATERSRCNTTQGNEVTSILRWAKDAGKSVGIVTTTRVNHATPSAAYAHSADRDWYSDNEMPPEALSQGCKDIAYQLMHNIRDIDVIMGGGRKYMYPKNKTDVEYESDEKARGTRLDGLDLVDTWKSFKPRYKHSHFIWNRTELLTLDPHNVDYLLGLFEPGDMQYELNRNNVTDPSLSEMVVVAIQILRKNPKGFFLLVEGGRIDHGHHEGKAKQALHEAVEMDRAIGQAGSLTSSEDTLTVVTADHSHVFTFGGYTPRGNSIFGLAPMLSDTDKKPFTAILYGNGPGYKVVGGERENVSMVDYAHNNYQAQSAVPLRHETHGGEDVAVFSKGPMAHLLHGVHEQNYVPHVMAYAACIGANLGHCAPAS
Assay: Inhibition of TTM-002 transduction by small molecule ALPL inhibitors in HeLa cells expressing ALPL
Type: cell-based
Parameters: endogenous in cells; host or cells: HeLa
Description: An inhibitor of ALPL was also investigated to determine if blocking the ALPL receptor would reduce cellular transduction of the TTM-002 capsid variant. […] The inhibitor or a vehicle control (equivalent amount of DMSO) was added to HeLa cells expressing ALPL 1 hour prior to transduction with an AAV viral particle comprising the TTM-002 capsid variant or an AAV9 control capsid and expressing a GFP-luciferase transgene under the control of a CAG promoter. The cells were then transduced with 1E4 VG/cell of an AAV particle comprising the TTM-002 capsid variant or an AAV9 control capsid. Media and virus were removed 4 hours post transduction and luciferase activity was measured (RLU) 24 hours post transduction.

COc1ccc(Cl)cc1S(=O)(=O)Nc1cncc(C(N)=O)c1 [SBI-425, 5-((5-chloro-2-methoxyphenyl)sulfonamido) nicotinamide]
IC50: 0.34 nM
effect on TTM-002 transduction: significantly inhibited TTM-002 transduction
